Results on one compound are retold here after US20040241766A1, “Carbamazepine assay” (priority 2003, published 2004).

Values joined by “and” are separate entries in the source; they are usually repeats but may differ in a detail not shown here. Equal values may be shown once.

For data set [1] the following is noted: humans, serum concentration; cited from earlier work.
Data set [2] is described as follows: Serum CBZ concentration in CBZ-treated rats (competitive avidin assay vs HPLC with UV detection). In kind it is in vivo. As to conditions: rat serum, 3.75 g CBZ/kg diet for 68 days, Serum #1-#3. Here is the method:
Biotinylated bovine serum albumin (BSA) was synthesized by mixing 50 mL of 10 g/L BSA in ice-cold 0.1 mol/L NaHCO3 (pH 7.5) with 5 mL of a 12 g/L N-hydroxysuccinimide ester (NHS-biotin) in dimethyl sulfoxide overnight at 4° C. The mixture was dialyzed for 48 h with gentle stirring at 4° C.
A flat bottom 96-well microtiter plate (Nunc Maxisorp, Fisher Scientific, Pittsburgh, Pa.) was coated with 200 μL of a 1:2 dilution of biotinylated BSA in coating buffer (50 mmol/L bicarbonate, pH 9.0) and incubated at 4° C. for at least 1 h (up to 48 h).
A 10 g/L stock of CBZ was made by dissolving CBZ in methanol and then this was diluted 1:2 in Hepes buffer (0.1 mol/L Hepes, 1 mol/L NaCl, pH 7.0) to make a concentration of 5 g/L. 5 μL of this stock was diluted in 295 μL serum (collected immediately after a rat had been killed by exsanguination and whole blood was allowed to clot 10 min before centrifugation at 10,000× g for 10 min, and serum recovered). […]
The coated flat bottom plate was washed three times with 0.05% (v/v) tween-20 and before the wells dried out, 100 μL of the contents of the U-bottom plate were added to the flat bottom plate and incubated for 45 min—up to 4 h. […] After 45 min, 50 μL of 2 mol/L H2SO4 was added to the wells and the absorbance was measured at 490-650 nm in a plate reader spectrophotometer (Molecular Devices, Sunnyvale, Calif.). […]

A further data set deals with T1, avidin (Gallus gallus, UniProt P02701).
T1 construct: purchased Pierce Chemical Company
T1 sequence (P02701 25-152): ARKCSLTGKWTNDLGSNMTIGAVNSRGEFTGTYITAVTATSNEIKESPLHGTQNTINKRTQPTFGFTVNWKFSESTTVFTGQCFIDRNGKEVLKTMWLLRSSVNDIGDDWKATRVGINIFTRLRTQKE
The experiment in a line: HABA assay: displacement of HABA from avidin. Format: binding. As to the method: In order to determine whether CBZ can bind to avidin, a solution of 10 mg/L CBZ dissolved in methanol was used in a HABA assay (Pierce Chemical Company, Pittsburgh, Pa.). When [2-(4′-hydroxyazobenzene) benzoic acid (HABA) is added in excess of avidin (Pierce Chemical Company, Pittsburgh, Pa.), an absorption at 500 nm is observed and a change in color occurs from yellow to red. This absorption is decreased proportionately when biotin is added since biotin displaces the HABA dye due to its higher affinity for avidin. The assay can be performed in a single cuvette by noting the A500 of the avidin-HABA solution before and after addition of the biotin-containing sample; the change in absorbance can then be related to the amount of biotin in the sample by using the extinction coefficient of the complex.
This change in absorbance is equivalent to 0.17 μmoles biotin-competing capacity of CBZ/ml reaction mixture. This amount was present according to a calculation equation described by the manufacturer.

`NC(=O)N1c2ccccc2C=Cc2ccccc21` [CBZ, 5-carbamoyl-5H-dibenz[b,f]azepine]: the therapeutic range in data set [1] was 4 to 12 mg/L. In data set [2] (HPLC with UV detection), the “serum CBZ concentration, HPLC” value was 4.7 mg/L and 3.3 mg/L. Besides, the “serum CBZ concentration, Competitive Assay” value in data set [2] (avidin-HRP/biotinylated BSA competitive assay) was 4.8 mg/L and 3.8 mg/L and 3.0 mg/L. Besides, the “change in absorbance at 500 nm” value on avidin (10 mg/L CBZ in methanol added to avidin-HABA solution) was determined as 0.5633. In addition, the “binding to avidin relative to HABA” value on avidin (HABA displacement) is recorded as “binds more tightly to avidin than does HABA”. Besides, the “biotin-competing capacity of CBZ/ml reaction mixture” value at avidin (calculated from change in absorbance by manufacturer's equation, 10 mg/L CBZ) is 0.17 µmol.
